{
  "source": "patent US20230312576A1",
  "about": "“4-(7H-PYRROLO[2,3-D]PYRIMIDIN-4-YL)-3,6-DIHYDROPYRIDINE-1-(2H)-CARBOXAMIDE DERIVATIVES AS LIMK AND/OR ROCK KINASES INHIBITORS FOR USE IN THE TREATMENT OF CANCER” (CENTRE NATIONAL DE LA RECHERCHE SCIENTIFIQUE, priority 2020, published 2023)",
  "key": {"ROCK1": {"target": "ROCK1 (Homo sapiens (Human), UniProt Q13464)", "sequence (Q13464 whole entry)": "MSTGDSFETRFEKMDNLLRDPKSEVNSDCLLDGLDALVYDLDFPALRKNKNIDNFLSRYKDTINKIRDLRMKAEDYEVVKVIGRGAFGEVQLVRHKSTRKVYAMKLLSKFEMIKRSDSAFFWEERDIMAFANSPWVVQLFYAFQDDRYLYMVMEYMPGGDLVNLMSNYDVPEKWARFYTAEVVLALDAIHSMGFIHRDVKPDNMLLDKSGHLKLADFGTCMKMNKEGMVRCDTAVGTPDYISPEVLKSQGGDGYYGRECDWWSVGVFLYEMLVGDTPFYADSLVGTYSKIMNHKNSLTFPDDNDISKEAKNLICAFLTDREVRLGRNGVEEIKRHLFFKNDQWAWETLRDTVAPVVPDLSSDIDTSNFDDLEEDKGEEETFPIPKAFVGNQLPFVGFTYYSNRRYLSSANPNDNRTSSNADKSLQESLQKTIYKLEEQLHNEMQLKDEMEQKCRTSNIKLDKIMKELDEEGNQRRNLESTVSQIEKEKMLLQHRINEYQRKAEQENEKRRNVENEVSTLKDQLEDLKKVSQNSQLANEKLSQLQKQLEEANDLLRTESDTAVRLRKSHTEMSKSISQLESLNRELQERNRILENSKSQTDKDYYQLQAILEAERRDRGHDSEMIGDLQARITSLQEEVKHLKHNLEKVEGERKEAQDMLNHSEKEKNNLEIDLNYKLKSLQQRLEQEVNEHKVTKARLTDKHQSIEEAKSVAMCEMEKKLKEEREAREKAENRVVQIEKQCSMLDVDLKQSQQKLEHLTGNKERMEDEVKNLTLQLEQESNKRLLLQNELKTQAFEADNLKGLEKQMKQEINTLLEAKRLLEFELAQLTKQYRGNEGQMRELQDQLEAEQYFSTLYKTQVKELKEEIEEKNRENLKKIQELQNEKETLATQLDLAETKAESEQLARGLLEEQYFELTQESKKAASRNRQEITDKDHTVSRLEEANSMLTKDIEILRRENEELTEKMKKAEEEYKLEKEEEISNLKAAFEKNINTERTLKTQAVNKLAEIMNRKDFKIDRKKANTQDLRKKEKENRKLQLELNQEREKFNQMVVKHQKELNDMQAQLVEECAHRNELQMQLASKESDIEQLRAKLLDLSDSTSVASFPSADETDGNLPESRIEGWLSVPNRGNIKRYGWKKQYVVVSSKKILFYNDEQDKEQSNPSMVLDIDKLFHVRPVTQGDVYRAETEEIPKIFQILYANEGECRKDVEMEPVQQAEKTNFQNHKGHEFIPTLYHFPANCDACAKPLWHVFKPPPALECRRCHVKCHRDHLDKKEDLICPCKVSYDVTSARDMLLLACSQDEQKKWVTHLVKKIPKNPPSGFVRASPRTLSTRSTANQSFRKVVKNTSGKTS", "test": "Z'Lyte assay, ROCK1 inhibition at a single concentration", "type": "biochemical", "details": "read-out: % inhibition (ROCK1) 1 uM, 1 uM"}, "[1]": {"tested_on": "cofilin phosphorylation, MPNST90-8 cells", "test": "Cofilin phosphorylation by Western Blot in MPNST90-8 cells", "type": "cell-based", "details": "read-out: % inhibition Cofilin phosphorylation MPNST90-8 cells treated 2 h with 25 uM of inhibitor, MPNST90-8 cells, 25 uM"}, "[2]": {"tested_on": "cofilin phosphorylation, MPNST88-14 cells", "test": "Cofilin phosphorylation by Western Blot in MPNST88-14 cells", "type": "cell-based", "details": "read-out: % inhibition Cofilin phosphorylation MPNST88-14 cells treated 2 h with 25 uM of inhibitor, MPNST88-14 cells, 25 uM"}, "U2OS cells [3]": {"tested_on": "U2OS cells", "test": "Wound-healing migration assay", "type": "cell-based", "details": "2.5 μM, 24 h"}, "LIMK1": {"target": "LIMK1 (Homo sapiens (Human), UniProt P53667)", "sequence (P53667 whole entry)": "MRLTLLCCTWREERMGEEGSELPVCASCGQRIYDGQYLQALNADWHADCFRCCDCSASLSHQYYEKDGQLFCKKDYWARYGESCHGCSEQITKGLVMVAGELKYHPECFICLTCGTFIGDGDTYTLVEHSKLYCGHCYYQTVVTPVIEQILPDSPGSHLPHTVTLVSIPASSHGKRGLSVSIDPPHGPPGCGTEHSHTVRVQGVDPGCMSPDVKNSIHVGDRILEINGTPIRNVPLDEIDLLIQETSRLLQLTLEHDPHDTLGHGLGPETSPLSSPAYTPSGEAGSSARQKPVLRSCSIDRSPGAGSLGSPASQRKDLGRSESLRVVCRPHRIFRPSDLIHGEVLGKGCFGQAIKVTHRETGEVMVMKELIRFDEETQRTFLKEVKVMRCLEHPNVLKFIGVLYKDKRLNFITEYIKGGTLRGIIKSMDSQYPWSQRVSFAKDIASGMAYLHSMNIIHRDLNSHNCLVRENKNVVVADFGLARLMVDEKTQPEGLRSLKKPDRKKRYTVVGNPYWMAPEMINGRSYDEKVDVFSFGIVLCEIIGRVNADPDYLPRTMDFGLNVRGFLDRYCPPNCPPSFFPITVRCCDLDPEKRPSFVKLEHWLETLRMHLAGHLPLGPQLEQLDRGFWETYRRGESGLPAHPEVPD", "test": "Lanthascreen Eu binding assay (TR-FRET), inhibition of LIMK1", "details": "Lanthascreen Eu binding assay"}, "[4]": {"tested_on": "cofilin phosphorylation, HeLa cells", "test": "Cofilin phosphorylation by Western Blot (anti-phospho-Ser3-cofilin) in HeLa cells", "type": "cell-based", "details": "Homo sapiens, 2 h"}, "ROCK2": {"target": "ROCK2 (Homo sapiens (Human), UniProt O75116)", "sequence (O75116 whole entry)": "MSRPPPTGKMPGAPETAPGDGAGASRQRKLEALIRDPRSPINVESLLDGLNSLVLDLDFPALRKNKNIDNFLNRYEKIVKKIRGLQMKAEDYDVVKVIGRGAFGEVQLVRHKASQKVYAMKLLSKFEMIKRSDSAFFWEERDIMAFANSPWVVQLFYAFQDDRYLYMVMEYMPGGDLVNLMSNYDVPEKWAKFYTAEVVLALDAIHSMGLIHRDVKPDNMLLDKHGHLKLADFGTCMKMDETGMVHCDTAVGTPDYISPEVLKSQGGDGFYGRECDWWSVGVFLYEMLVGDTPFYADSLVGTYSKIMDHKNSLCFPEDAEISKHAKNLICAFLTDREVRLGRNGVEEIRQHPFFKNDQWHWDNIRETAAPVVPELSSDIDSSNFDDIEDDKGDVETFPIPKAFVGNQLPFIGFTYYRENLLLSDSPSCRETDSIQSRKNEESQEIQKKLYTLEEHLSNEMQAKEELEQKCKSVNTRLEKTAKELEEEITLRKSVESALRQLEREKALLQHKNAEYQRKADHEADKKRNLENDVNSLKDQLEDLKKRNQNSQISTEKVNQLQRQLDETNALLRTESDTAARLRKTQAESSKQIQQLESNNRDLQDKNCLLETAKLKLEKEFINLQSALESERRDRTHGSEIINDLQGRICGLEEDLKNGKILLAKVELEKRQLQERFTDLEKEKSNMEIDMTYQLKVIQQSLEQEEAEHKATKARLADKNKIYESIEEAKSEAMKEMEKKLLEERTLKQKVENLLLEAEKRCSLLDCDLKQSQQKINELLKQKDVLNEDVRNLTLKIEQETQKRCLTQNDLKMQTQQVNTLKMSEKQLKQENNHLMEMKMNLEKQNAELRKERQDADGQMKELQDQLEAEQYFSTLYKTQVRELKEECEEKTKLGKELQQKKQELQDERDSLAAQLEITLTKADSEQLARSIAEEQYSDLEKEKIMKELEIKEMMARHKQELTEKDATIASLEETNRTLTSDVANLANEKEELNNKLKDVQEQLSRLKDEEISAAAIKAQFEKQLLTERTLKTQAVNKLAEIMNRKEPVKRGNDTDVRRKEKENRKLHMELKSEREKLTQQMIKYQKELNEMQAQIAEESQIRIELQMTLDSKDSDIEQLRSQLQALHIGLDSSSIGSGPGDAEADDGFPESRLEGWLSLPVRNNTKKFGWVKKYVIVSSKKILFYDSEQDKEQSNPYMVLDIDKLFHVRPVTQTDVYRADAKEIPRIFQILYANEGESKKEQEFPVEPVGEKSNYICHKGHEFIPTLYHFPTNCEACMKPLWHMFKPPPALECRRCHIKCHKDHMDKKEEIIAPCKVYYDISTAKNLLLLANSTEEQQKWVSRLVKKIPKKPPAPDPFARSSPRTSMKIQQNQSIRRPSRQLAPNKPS", "test": "Z'Lyte assay, ROCK2 inhibition at a single concentration", "type": "biochemical", "details": "read-out: % inhibition (ROCK2) 1 uM, 1 uM"}, "LIMK2": {"target": "LIMK2 (Homo sapiens (Human), UniProt P53671)", "sequence (P53671 whole entry)": "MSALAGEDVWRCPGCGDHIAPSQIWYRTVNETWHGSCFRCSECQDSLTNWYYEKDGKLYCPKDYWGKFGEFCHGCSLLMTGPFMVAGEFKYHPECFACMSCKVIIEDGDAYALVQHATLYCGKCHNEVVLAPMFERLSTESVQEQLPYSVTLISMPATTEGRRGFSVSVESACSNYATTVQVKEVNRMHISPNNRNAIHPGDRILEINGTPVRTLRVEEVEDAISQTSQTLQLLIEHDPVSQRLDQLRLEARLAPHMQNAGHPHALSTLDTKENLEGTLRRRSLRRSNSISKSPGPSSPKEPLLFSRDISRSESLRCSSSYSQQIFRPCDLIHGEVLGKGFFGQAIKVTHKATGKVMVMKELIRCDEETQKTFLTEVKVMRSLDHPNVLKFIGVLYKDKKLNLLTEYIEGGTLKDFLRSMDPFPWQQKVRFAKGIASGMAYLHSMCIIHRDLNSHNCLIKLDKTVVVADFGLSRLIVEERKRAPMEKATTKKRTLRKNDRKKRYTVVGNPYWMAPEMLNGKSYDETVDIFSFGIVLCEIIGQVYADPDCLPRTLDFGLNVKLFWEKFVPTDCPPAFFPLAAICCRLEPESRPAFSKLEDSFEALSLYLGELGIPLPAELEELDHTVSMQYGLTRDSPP", "test": "Lanthascreen Eu binding assay (TR-FRET), inhibition of LIMK2", "details": "Lanthascreen Eu binding assay"}, "U2OS cells [5]": {"tested_on": "U2OS cells", "test": "Microtubule dynamics by visualizing mitotic spindles", "type": "cell-based", "details": "2.5 μM, 24 hours"}},
  "note": "Like-named read-outs stand apart in the source and are kept apart here.",
  "data": [
    {"smiles": "Cc1c[nH]c2ncnc(C3=CCN(C(=O)Nc4cccc(Oc5ccccc5)c4)CC3)c12", "note": "[Compound 15, 4-(5-Methyl-7H-pyrrolo[2,3-d]pyrimidin-4-yl)-N-(3-phenoxy-phenyl)-3,6-dihydropyridine-1(2H)-carboxamide]", "values": [
      {"measurement": "inhibition at 1 µM", "setting": "ROCK1", "value": 44, "unit": "%"},
      {"measurement": "inhibition at 25 µM", "setting": "[1]", "value": 83.2, "unit": "%"},
      {"measurement": "inhibition at 25 µM", "setting": "[2]", "value": 78.6, "unit": "%"},
      {"measurement": "inhibition of U2OS cell migration upon scratch", "setting": "U2OS cells [3]", "value": "particularly efficient"},
      {"measurement": "Ki", "setting": "LIMK1", "value": 19.4, "unit": "nM"},
      {"measurement": "inhibition at 25 µM", "setting": "[4]; HeLa, read-out: % inhibition of cofilin phosphorylation in HeLa cells (treatment 2 h, at 25 μM), Table 2, normalized to the control condition DMSO", "value": 92.1, "unit": "%"},
      {"measurement": "inhibition at 25 µM", "setting": "[4]; read-out: % inhibition Cofilin phosphorylation HeLa cells treated 2 h with 25 uM of inhibitor, HeLa cells, 25 uM", "value": 92.1, "unit": "%"},
      {"measurement": "inhibition at 1 µM", "setting": "ROCK2", "value": 24, "unit": "%"},
      {"measurement": "Ki", "setting": "LIMK2", "value": 14.4, "unit": "nM"},
      {"measurement": "effects on microtubule dynamics (mitotic spindles)", "setting": "U2OS cells [5]", "value": "strong effects on microtubule dynamics"}
    ]}
  ]
}
